Results on three molecules are retold here after US20250009614A1 (priority 2021, published 2025).

The subject of one data set is human skin. Nature of the data set: Skin irritancy patch test. It counts as in vivo. The following applies: occluded patch, neat. The protocol:
The objective of the study was to determine skin irritancy potential of the nanoemulsion hand sanitizer products of the invention. The study was conducted according to internationally recognized Good Clinical Practice Guidelines. Permission to conduct the study was covered under the protocol approval for project MREC/H/48/2014: CR of the Research, Ethics and Publications Committee of the Sefako Makgatho Health Sciences University. Recruitment for the study began two weeks before the commencement of the study and approximately 25 panellists were recruited according to the study requirements, to commence the study with a test panel of 20. Potential panellists attended a series of study briefings held during the week prior to the study. Panellists were verbally briefed and given the Study Instructions, Informed Consent forms (plus coloured duplicate copies of the latter).
Panellists were given specifically timed appointments for the whole study. Unless otherwise stated in the summary, twenty adult female volunteers were used, of whom five had sensitive skins (as determined from the subject enrolment questionnaire). Signed consent forms were obtained from all subjects. Subjects with a history of clinical dermal abnormalities or who are taking or using medication which may affect test results through mediation of the inflammatory response were excluded. […]
Briefly, the study procedure was as follows; Controls and products were applied to the inner forearm of each volunteer in a randomized, blinded pattern at zero hours and repeated on the same position at 24 hours. A measured volume of control or pieces of product was placed in the respective chamber and the chamber attached to the forearm. […]
The protocol uses 1% sodium lauryl sulphate (SLS) solution as a positive control and de-ionized water as a negative control. A measured amount of 0.02 ml of sodium lauryl sulphate and de-ionized water was applied. […]
The maximum irritancy (as calculated by the mean visual score+one standard deviation of the visual score) for the products and the controls is tabulated below. […]

In another data set the test system is A549 cells. Put plainly: In-vitro cytotoxicity, MTT assay. The note with it: 24 hours. Background: Formazan colour is commonly taken as a measure of viable cells.
The next data set deals with HIV-1 pseudovirus. The note with it: infection of 100 TCID50; cited from earlier work.

Take `CCCCCCCCCCCCOS(=O)(=O)[O-].[Na+]` [H, Sodium Lauryl Sulphate]: in the data set with human skin (0-3 scale, 20 panellists), the “Maximum value (mean visual score + sd)” value is recorded as 2.18. In the data set with human skin, the “Conclusion (irritancy category)” value is recorded as “Irritant (product mean visual score+SD >1.5—Product is irritant)” and the “Time point (hours) of maximum value” turned out to be 72 h.

On to `C=C(C)[C@@H]1CCC(C)=C[C@H]1c1c(O)cc(CCCCC)cc1O` [CBD, cannabidiol], for which the “cytotoxicity (in words)” value in the data set with A549 cells is listed as “significant toxicity”.

B1: cyanovirin-N (protein, UniProt P81180 1-101, looked up)
Cyanovirin-N: LGKFSQTCYNSAIQGSVLTSTCERTNGGYNTSSIDLNSVIENVDGSLKWQPSNFIETCRNTQLAGSSELAAECKTRAQQFVSTKINLDDHIANIDGTLKYE
As for B1, in the data set with A549 cells, the “cytotoxicity (in words)” value is on record as “significant toxicity”. For the same molecule, in the data set with HIV-1 pseudovirus, the “reported IC50 (as mass)” value is 22 to 340 µg.
